From patent publication EP2119770B1, “Production of alpha-oxyfunctionalized carbonyl compounds” (priority 2008, dated 2009)

What was measured:
Type in all cases: biochemical
Gox1615 [1] = molecular target: T1, Gox1615 (Gluconobacter oxydans, UniProt Q5FQJ0); assay: Regioselectivity of bioconversion, product determined by NMR, Gox1615; conditions: bioconversion with Gox1122 cofactor regeneration, NMR analysis
T1 sequence (Q5FQJ0 1-332): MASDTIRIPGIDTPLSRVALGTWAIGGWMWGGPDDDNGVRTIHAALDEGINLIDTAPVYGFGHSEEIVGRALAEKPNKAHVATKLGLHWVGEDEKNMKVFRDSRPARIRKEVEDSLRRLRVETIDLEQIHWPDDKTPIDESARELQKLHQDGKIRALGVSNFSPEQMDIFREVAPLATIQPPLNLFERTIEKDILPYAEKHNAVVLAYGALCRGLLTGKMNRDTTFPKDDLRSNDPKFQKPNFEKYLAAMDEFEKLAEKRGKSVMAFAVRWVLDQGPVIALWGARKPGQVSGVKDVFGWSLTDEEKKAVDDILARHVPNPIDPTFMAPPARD
Text: Cofactor regeneration: A prerequisite for the production of α-hydroxycarbonyl compounds is the regeneration of the expensive coenzymes and the stability of the protein catalysts. By coupling two coenzyme-dependent enzyme reactions, NADPH can be continuously regenerated. […] For this purpose, we used a combined enzymatic reaction between the NADPH-dependent oxidoreductases that form α-hydroxycarbonyl compounds and the aldehyde dehydrogenase GOX1122 (see Schweiger, P. et al., J. Mol. Microbiol. Biotechnol. 13:147-155 (2007)) that produces the reduced cofactor in the course of acetaldehyde oxidation. […] The biotransformation was performed in a batch process (total volume 2.5 ml 40 mM potassium phosphate buffer pH 7). 30 µg of purified Gox1122 and of NADPH-dependent oxidoreductases and 50 µM NADPH were added. The substrate concentration in the beginning was 20 mM 2,3-pentanedione and 20 mM acetaldehyde. Fresh substrates were added every 60 min (20 mM each).
NMR: The 2.5 ml bioconversion was extracted with two times equal volume of d-chloroform. ^1H and ^13C NMR spectra were recorded on a DPX 300 Spectrometer (300 MHz) and referenced to the CDCl3 internal standard. Chemical samples analyzed with Bruker NMR Suite 2.5 software constructed final product structures.
2.7 Regioselectivity of GOX0644 and GOX1615: Tab. […] Tab. 10: Summary of Regioselectivity
The reduced NADPH was oxidized in the reduction of phenylglyoxal to 2-hydroxy-2-phenyl-acetaldehyde by protein Gox1615. 5 ml bioconversions for determining regioselectivity were set up with 2 mg of proteins Gox1615 and Gox1122, 40 mM potassium phosphate buffer, pH 7.0, 50 µM NADPH. Substrates (20 mM phenylglyoxal and acetaldehyde) were added every 30 min. The reaction was followed for 3 h to produce quantities between 40-60 mg of product (2-phenyl-2-hydroxyaldehyde).

Gox0644 [2] = molecular target: T2, Gox0644 (Gluconobacter oxydans, UniProt Q5FT75); assay: Enzyme kinetics (Lineweaver-Burk plots), Gox0644; conditions: NADPH-dependent reduction
Protocol: (§1) Determination of pH and temperature optima and enzyme kinetics: The optimum pH for enzyme activities was determined by a modified method of Salusjärvi, T. et al., Appl. Microbiol. Biotechnol. 65:306-314 (2004) using the following buffer system (50 mM final concentration each): sodium acetate pH 4.5 - 6.5, potassium phosphate pH 6.5 - 8.0, Tris-HCl pH 8.0 - 10. Temperature optima for the biocatalysts were determined under standard reaction conditions at temperatures ranging from 20 - 80 °C. The Michaelis constant (Km) for the proteins was determined from purified enzyme by Lineweaver-Burk plots. Assays were performed at optimum pH for each enzyme and at 30 °C using the top substrate and a targeted substrate. The Km for each substrate was calculated using concentrations of 0.0025 to 10 mM, and the Km NAD(P)H and NAD(P) was calculated using concentrations of 0.01 to 0.5 mM
(§2) The Michaelis constants were determined from purified enzyme by Lineweaver-Burk plots. The Km and Vmax values for the substrates were calculated using concentrations of 0.025 to 10 mM, The optimal pH values and temperatures for enzyme activities are also shown in Tab. 11. Tab. 11: Summary of kinetic parameters

Gox0644 [3] = molecular target: T2, Gox0644; assay: Gox0644 acetaldehyde tolerance test
Text: 3.1. […] By coupling two coenzyme-dependent enzyme reactions, NADPH can be continuously regenerated. […] For this purpose, a combined enzymatic reaction was used between the NADPH-dependent oxidoreductases that form α-hydroxy carbonyl compounds and the aldehyde dehydrogenase GOX1122 that produces the reduced cofactor in the course of acetaldehyde oxidation. […] The products derived from the α-diketone and α-ketoaldehyde substrate reaction were generated according to the cofactor regeneration protocol. […] In both the reactions with phenylglyoxal and 2,3 pentanedione, Gox0644 activity remained similar to the control reaction consisting of a reaction without acetaldehyde (Tab. 12/13). […] In the reaction with 2,3 pentanedione there was a slight decrease of about 20% from the control, however, the activity levels were still very high at 66.8 U/mg. […] Table 12: Gox0644 acetaldehyde tolerance tests with phenylglyoxal

Gox1615 [4] = molecular target: T1, Gox1615; assay: Enzyme kinetics (Lineweaver-Burk plots), Gox1615; conditions: NADPH-dependent reduction
Protocol: as §1, §2

Question: How did the “Product (regioselective reduction)” value (Gox1615 [1]) turn out when `O=CC(=O)c1ccccc1` [phenylglyoxal] was run?
Answer: The value was 2-hydroxy-2-phenyl-acetaldehyde.

Question: What about the “Product (regioselective reduction)” value (Gox1615 [1]; listed as Phenylglyoxal) of the same compound?
Answer: Its value is 2-hydroxy-2-phenylacetaldehyde.

Question: And the Vmax (Gox0644 [2])?
Answer: Its Vmax is 93 U/mg protein.

Question: And the Gox0644 activity (Gox0644 [3]; substrate phenylglyoxal, Control (without acetaldehyde))?
Answer: The Gox0644 activity was 38.5 U/mg.

Question: And the Gox0644 activity (Gox0644 [3]; substrate phenylglyoxal, acetaldehyde 10mM)?
Answer: The Gox0644 activity was 29.6 U/mg.

Question: And the Gox0644 activity (Gox0644 [3]; substrate phenylglyoxal, acetaldehyde 30mM)?
Answer: Its Gox0644 activity is 37.1 U/mg.

Question: What about the Gox0644 activity (Gox0644 [3]; substrate phenylglyoxal, acetaldehyde 50mM) of the same compound?
Answer: Its Gox0644 activity is 39.3 U/mg.

Question: What about the Gox0644 activity (Gox0644 [3]; substrate phenylglyoxal, acetaldehyde 100mM) of the same compound?
Answer: Its Gox0644 activity is 31.2 U/mg.

Question: How did the “Product (regioselective reduction)” value (Gox1615 [1]) turn out when `CCC(=O)C(C)=O` [2,3-pentanedione] was run?
Answer: The value was 2-hdrox-pentane-3-one.

Question: And the Vmax (Gox0644 [2])?
Answer: Its Vmax is 79 U/mg protein.

Question: What about the activity levels (Gox0644 [3]; Gox0644 with 2,3 pentanedione, high concentration of acetaldehyde) of the same compound?
Answer: The activity levels was 66.8 U/mg.

Question: And the Gox0644 activity (Gox0644 [3]; substrate 2,3-pentanedione, Control (without acetaldehyde))?
Answer: The Gox0644 activity was 87.6 U/mg.

Question: And the Gox0644 activity (Gox0644 [3]; substrate 2,3-pentanedione, acetaldehyde 10mM)?
Answer: The Gox0644 activity was 90.5 U/mg.

Question: And the Gox0644 activity (Gox0644 [3]; substrate 2,3-pentanedione, acetaldehyde 30mM)?
Answer: The Gox0644 activity was 79.3 U/mg.

Question: And the Gox0644 activity (Gox0644 [3]; substrate 2,3-pentanedione, acetaldehyde 50mM)?
Answer: The Gox0644 activity was 66.8 U/mg.

Question: With `CC(=O)C=O` [methylglyoxal] as the compound, how does the Vmax (Gox1615 [4]) read?
Answer: The Vmax was 22 U/mg protein.

Question: How did the Vmax (Gox1615 [4]) turn out when `CCCC(=O)C(C)=O` [2,3-hexanedione] was run?
Answer: Its Vmax is 6 U/mg protein.
